Data as given in patent US20260092085A1, “SYNTHETIC TRIPLEX PEPTIDE NUCLEIC ACID-BASED INHIBITORS FOR CANCER THERAPY” (University of Connecticut, priority 2022, published 2026).

What was measured:
SUDHL-5 cells = experiment: Cell viability by trypan blue assay, SUDHL-5; type: cell-based
Experimental: (§1) Cell viability was performed using trypan blue-based assay (n=3 technical triplicate), data represented as mean±(SEM), * represents the statistical analysis were performed relative to Scr-γtcPNA-155 and ♦ represent analysis performed relative to PNA-155. *p<0.05, **p<0.01, ***p<0.001 and ****p<0.0001, ♦p<0.05, ♦♦p<0.01, unpaired two-tailed t-test was used for statistical analysis. The experiment was repeated three times and in triplicate.
(§2) Cell viability was performed using trypan blue-based assay (n=3), data represented as mean±standard error mean (SEM), *p<0.05, **p<0.01. Unpaired two-tailed t-test was used for statistical analysis.
(§3) Cell viability was performed using trypan blue-based assay (n=3), data represented as mean±standard error mean (SEM).
(§4) Cell viability by trypan blue assay: Diffused large B cell lymphoma (DLBCL) cell lines like SUDHL-2 (ATCC® CRL-2956™) and SUDHL-5 (ATCC® CRL-2958™) cells were purchased from ATCC (Virginia, USA). The cells were regularly tested for Mycoplasma contamination using MycoAlert™ Mycoplasma detection kit (Lonza). All the cells used in the experiment were passaged less than 8 times. 10,000 U2932, SUDHL-5, or SUDHL-2 cells were plated in a 96 well plate. The cells were treated with different doses (500 nM, 1000 nM, 2000 nM and 4000 nM) of PNA-155, gamma tcPNA-155 or Scr-γtcPNA-155 for 48 hrs in an incubator (37° C. and 5% CO2). The dead cells were marked with trypan blue. Further counting was performed using an automated cell counter (Bio-rad).

[1] = tested on: miR-155 associated tumor suppressor genes; experiment: Gene expression of miR-155 downstream tumor suppressor genes in SUDHL-2 cells; type: cell-based; conditions: SUDHL-2, in comparison to Scr-γtcPNA-155 and PNA-155
Experimental: Data is normalized with average GAPDH control (n=3), and represented as mean±SEM, **p<0.01. Unpaired two tailed t-test was used for statistical analysis and the analysis was performed relative to Scr-gtcPNA-155.
Similarly, 400,000 SUDHL-2 cells were seeded in a 12 well plate and treated with 500 nM Scr gamma tcPNA-155, PNA-155 and gamma tcPNA-155 for 48 hrs in an incubator (37° C. and 5% CO2). The RNA was extracted and the samples for gene expression were prepared in the same manner as described above.

SUDHL-2 cells = experiment: Cell viability by trypan blue assay, SUDHL-2; type: cell-based
Experimental: as §1, §2, §3, §4

miR-155 downstream genes = experiment: Downstream gene expression and protein levels in U2932 tumor samples; type: in vivo, NSG mice; conditions: U2932 xenograft
Experimental: FIGS. 22A-D show in vivo gene expression and protein level analysis. (22A) miR-155 gene expression levels in U2932 tumor samples after in vivo treatment with indicated PNAs. Data was normalized with average control U6 (n=4, data represented as mean±standard error mean). ***p<0.001 (22B) Gene expression level of downstream target genes of miR-155: MCL1 in U2932 tumor samples after treatment with total 3 mg kg-1 dose of Scr-γtcPNA-155, PNA-155, γPNA-155 and γtcPNA-155 and normalized with average control GAPDH (n=3, data represented as mean±SEM), unpaired two-tailed t-test was performed for analysis). *p<0.05, **p<0.01 (22C) Representative western blot of Mcl-1 protein and its quantification (n=3 technical replicate) in U2932 tumor samples treated with total 3 mg kg-1 dose of Scr-γtcPNA-155, PNA-155 and γtcPNA-155. Data is represented as mean±SEM and unpaired two-tailed t-test was performed for analysis. *p<0.05. The relative protein levels were determined from the band intensity using ImageJ software and normalized relative to loading control and treatment control. (22D) Gene expression level of tumor suppressor proteins (FOXO3A, CUX1, SOCS1, CSF1R, JARID2, SHIP1, PICALM, PDCD4, BACH1, CASP3) in U2932 tumor samples after treatment with total 3 mg kg-1 dose of Scr-γtcPNA-155, PNA-155, γPNA-155 and γtcPNA-155 and normalized with average control GAPDH (n=3, data represented as mean±SEM, unpaired two-tailed t-test was performed for statistical analysis). *p<0.05, **p<0.01.
Data is represented as mean±SEM and unpaired t-test was used for statistical analysis *p<0.05. The relative protein levels were determined from the band intensity using ImageJ software and normalized relative to loading control and treatment control.
Data is represented as mean±SEM and unpaired t-test was used for statistical analysis.
Data is represented as mean±SEM and unpaired t-test was used for statistical analysis. The relative protein levels were determined from the band intensity using ImageJ software and normalized relative to loading control and treatment control.
RNA and Protein extraction from tumor samples: The mice were injected intra-tumorally with 1 mg kg-1 dose of PNA-155, γtcPNA-155, γPNA-155, Scr-γtcPNA-155 or were untreated. The injections were repeated two additional times after 1 week each. The length, breadth, and depth of the tumors were measured daily using a vernier caliper. The mice were euthanized when the tumor volumes reached 2000 mm^3. The resected tumor sections were finely minced using a sterile blade and suspended in dissociation media (4 ml) comprising of RPMI-1640, 1.2 mg/ml dispase, and 0.5 mg/ml collagenase for 90 mins at 500 rpm at 37° C. The dissociated tumors were washed with buffer saline at 2500 rpm (4 mins) at 4° C. and then suspended in 0.25% trypsin for 4 mins at room temperature. RPMI 1640 media was added to the trypsinized tumor mass, and the cells were passed through a 70 um filter. The cells were centrifuged at 2500 rpm for 4 mins at 4° C. The cell pellet was then suspended in 1×RBC lysis buffer (Sigma) and incubated on ice for 10 mins. PBS was added to the cells and the cells were passed through a 40 um filter. The cells were centrifuged at 2500 rpm for 4 mins at 4° C. The cell pellet was resuspended in 0.5% BSA in PBS. The mouse cells were removed from the tumor cells using a mouse cell depletion kit (Miltenyi Biotec) according to the manufacturer's protocol. The enriched tumor cells from each tumor sample were divided into two fractions. RNA for gene expression analysis was extracted from one tumor fraction by the same procedure as mentioned earlier. The protein for western blot analysis was extracted from the second fraction using the method described above.

γtcPNA-155: serine gamma tail-clamp anti-miR-155 PNA, RR-TJJJJ-OOO-ACCCCTATCACGATTAGCATTAA-RR, SEQ ID NO: 3 (all peptide nucleic acid (PNA); serine gamma PNA, tail-clamp TJJJJ via linkers, Arg-Arg at both ends)
reduction in cell viability at 500 nM (SUDHL-5 cells; SUDHL-5, 500 nM, compared to PNA-155 treated group): significant reduction in cell viability | decrease in cell viability (SUDHL-5 cells; SUDHL-5, 4UM, 48 hours): ~80% | upregulation of miR-155 associated tumor suppressor genes [1]: significant upregulation | reduction in cell viability at 500 nM (SUDHL-2 cells; SUDHL-2, 500 nM, compared to PNA-155 treated group): significant reduction in cell viability | decrease in cell viability (SUDHL-2 cells; SUDHL-2, 4UM, 48 hours): ~80% | upregulation of tumor suppressor genes in tumors (miR-155 downstream genes; intratumoral): significant upregulation | decrease in MCL1 mRNA levels in tumors (miR-155 downstream genes; total 3 mg kg-1, compared to PNA-155 treated group): ~50% | increase in Caspase-3 protein levels in tumors (miR-155 downstream genes; versus Scr-γtcPNA-155-treated tumors): 23% | Mcl-1 protein level in tumors (miR-155 downstream genes; western blot): reduction in the protein levels
